Test results as given in ChEMBL document CHEMBL4052632 (Eur J Med Chem, 2017).

Columns and labels:
A2780 [1] = assay: Cell cycle arrest in human A2780 cells assessed as decrease in G2/M phase after 48 hrs by propidium iodide staining based flow cytometry; format: functional
[2] = biological target: Mitogen-activated protein kinase 12 (Homo sapiens) (UniProt P53778); assay: Inhibition of full length recombinant human SAPK3 at 100 uM in presence of ATP relative to control
[3] = biological target: Platelet-derived growth factor receptor alpha (Homo sapiens) (UniProt P16234); assay: Inhibition of PDGFRalpha (unknown origin) using poly (Glu, Tyr) 4:1 as substrate at 100 uM after 1 hr by ELISA relative to control
[4] = biological target: Receptor tyrosine-protein kinase erbB-2 (Homo sapiens) (UniProt P04626); assay: Inhibition of ErbB2 (unknown origin) using poly (Glu, Tyr) 4:1 as substrate at 100 uM after 1 hr by ELISA relative to control
[5] = biological target: Tyrosine-protein kinase receptor UFO (Homo sapiens) (UniProt P30530); assay: Inhibition of AXL (unknown origin) using poly (Glu, Tyr) 4:1 as substrate at 100 uM after 1 hr by ELISA relative to control
Chain of Tyrosine-protein kinase receptor UFO (Homo sapiens) (P30530 whole entry): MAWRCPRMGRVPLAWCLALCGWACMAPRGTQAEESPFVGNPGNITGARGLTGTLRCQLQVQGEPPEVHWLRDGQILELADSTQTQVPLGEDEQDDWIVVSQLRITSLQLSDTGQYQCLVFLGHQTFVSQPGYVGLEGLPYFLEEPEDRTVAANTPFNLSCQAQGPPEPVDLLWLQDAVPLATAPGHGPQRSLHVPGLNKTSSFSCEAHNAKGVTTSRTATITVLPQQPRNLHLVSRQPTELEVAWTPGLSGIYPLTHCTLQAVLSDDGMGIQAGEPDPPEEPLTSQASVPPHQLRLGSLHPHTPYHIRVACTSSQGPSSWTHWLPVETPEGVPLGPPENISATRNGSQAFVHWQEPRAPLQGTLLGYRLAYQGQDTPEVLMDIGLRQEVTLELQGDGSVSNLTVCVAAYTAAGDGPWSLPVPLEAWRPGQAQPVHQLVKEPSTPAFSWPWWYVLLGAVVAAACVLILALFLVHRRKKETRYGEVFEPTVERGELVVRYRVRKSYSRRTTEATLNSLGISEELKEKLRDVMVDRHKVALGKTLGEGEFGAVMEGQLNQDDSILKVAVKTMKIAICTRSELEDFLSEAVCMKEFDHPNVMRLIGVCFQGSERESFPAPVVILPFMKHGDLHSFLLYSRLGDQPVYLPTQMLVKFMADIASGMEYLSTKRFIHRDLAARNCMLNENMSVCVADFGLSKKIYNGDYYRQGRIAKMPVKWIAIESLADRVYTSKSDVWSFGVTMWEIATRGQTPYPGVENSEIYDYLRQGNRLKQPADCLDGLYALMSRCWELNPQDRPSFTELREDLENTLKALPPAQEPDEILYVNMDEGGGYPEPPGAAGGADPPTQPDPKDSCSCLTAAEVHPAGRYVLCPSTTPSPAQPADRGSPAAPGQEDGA

A2780 [6] = assay: Antitumor activity against human A2780 cells xenografted in BALB/c nude mouse assessed as tumor growth inhibition at 50 mg/kg, ip administered once every 2 days for 14 consecutive days relative to control; format: functional; details: read-out: TGI
Homo sapiens = species on record: Homo sapiens; assay: Inhibition of recombinant human CK2 using Ulight-IkappaB-alpha as substrate at 100 uM after 60 mins in presence of ATP relative to control
[7] = biological target: Fibroblast growth factor receptor 1 (Homo sapiens) (UniProt P11362); assay: Inhibition of FGFR1 (unknown origin) using poly (Glu, Tyr) 4:1 as substrate at 100 uM after 1 hr by ELISA relative to control
[8] = biological target: Cyclin-dependent kinase 2/cyclin E1 (Homo sapiens) (UniProt P24864+P24941); assay: Inhibition of recombinant human CDK2/CyclinE using Ulight-CFFKNIVTPRTPPPSQGK-amide as substrate at 100 uM after 30 mins in presence of ATP relative to control; format: protein-complex assay
[9] = biological target: Proto-oncogene tyrosine-protein kinase Src (Homo sapiens) (UniProt P12931); assay: Inhibition of c-Src (unknown origin) using poly (Glu, Tyr) 4:1 as substrate at 100 uM after 1 hr by ELISA relative to control
[10] = biological target: Platelet-derived growth factor receptor beta (Homo sapiens) (UniProt P09619); assay: Inhibition of PDGFRbeta (unknown origin) using poly (Glu, Tyr) 4:1 as substrate at 100 uM after 1 hr by ELISA relative to control
[11] = biological target: T1, Glycogen synthase kinase-3 beta (Homo sapiens, UniProt P49841); assay: Inhibition of recombinant human GSK3beta using […] as substrate at 100 uM after 60 mins by spectrophotometric analysis
Target sequence in this assay (P49841 whole entry, looked up): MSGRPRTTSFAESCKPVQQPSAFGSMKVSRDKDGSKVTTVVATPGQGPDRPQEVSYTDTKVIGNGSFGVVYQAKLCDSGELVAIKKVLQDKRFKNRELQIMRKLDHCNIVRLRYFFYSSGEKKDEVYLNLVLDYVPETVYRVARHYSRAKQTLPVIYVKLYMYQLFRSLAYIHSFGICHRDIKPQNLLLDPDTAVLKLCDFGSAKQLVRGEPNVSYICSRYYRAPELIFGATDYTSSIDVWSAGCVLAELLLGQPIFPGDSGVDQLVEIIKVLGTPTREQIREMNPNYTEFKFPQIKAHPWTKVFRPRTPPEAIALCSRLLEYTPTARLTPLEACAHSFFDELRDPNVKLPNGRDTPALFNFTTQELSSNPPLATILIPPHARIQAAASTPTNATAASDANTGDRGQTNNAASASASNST

[12] = biological target: Protein kinase C alpha type (Homo sapiens) (UniProt P17252); assay: Inhibition of recombinant human PKCalpha using biotinyl-beta Abeta Abeta AKIQASFRGHMARKK as substrate at 100 uM after 10 mins in presence of ATP relative to control
[13] = biological target: Epidermal growth factor receptor (Homo sapiens) (UniProt P00533); assay: Inhibition of EGFR (unknown origin) using poly (Glu, Tyr) 4:1 as substrate at 100 uM after 1 hr by ELISA relative to control
[14] = biological target: T1, Glycogen synthase kinase-3 beta; assay: biochemical
Target sequence in this assay (P49841 whole entry): as the sequence (P49841 whole entry, looked up) above
Description: Inhibition of recombinant N-terminal His6-tagged human GSK3beta H350L mutant expressed in baculovirus infected Sf21 insect cells using polypeptide GS-2 as substrate after 30 mins in presence of ATP by kinase-glo luminescence assay

[15] = Toxicity in nude BALB/c mouse xenografted with human A2780 cells assessed as body weight loss at 50 mg/kg, ip administered once every 2 days for 14 consecutive days relative to control; format: organism-based; details: in vivo, 48 h
[16] = biological target: Hepatocyte growth factor receptor (Homo sapiens) (UniProt P08581); assay: Inhibition of c-Met (unknown origin) using poly (Glu, Tyr) 4:1 as substrate at 100 uM after 1 hr by ELISA relative to control
cells = details: Homo sapiens, OVCA433, 48 h
Description: Antiproliferative activity against human OVCA433 cells measured after 48 hrs by MTT assay

A2780 [17] = assay: Induction of apoptosis in human A2780 cells assessed as total apoptotic cells at 5 to 20 uM after 24 hrs by annexin V/propidium iodide staining based flow cytometry (reference value: 17.3%); format: functional
[18] = biological target: Mitogen-activated protein kinase 1 (Homo sapiens) (UniProt P28482); assay: Inhibition of human MAPK2 at 100 uM in presence of ATP relative to control
Mus musculus = assay: Toxicity in nude BALB/c mouse xenografted with human A2780 cells assessed as body weight loss at 30 mg/kg, ip administered once every 2 days for 14 consecutive days relative to control; format: organism-based; details: in vivo, 48 h
A2780 [19] = assay: Cell cycle arrest in human A2780 cells assessed as decrease in S phase after 48 hrs by propidium iodide staining based flow cytometry; format: functional
[20] = biological target: 5'-AMP-activated protein kinase catalytic subunit alpha-1 (Homo sapiens) (UniProt Q13131); assay: Inhibition of full length recombinant human AMPKalpha1 using AMARAASAAALARRR as substrate at 100 uM after 40 mins in presence of ATP relative to control
Chain of 5'-AMP-activated protein kinase catalytic subunit alpha-1 (Homo sapiens) (Q13131 whole entry, looked up): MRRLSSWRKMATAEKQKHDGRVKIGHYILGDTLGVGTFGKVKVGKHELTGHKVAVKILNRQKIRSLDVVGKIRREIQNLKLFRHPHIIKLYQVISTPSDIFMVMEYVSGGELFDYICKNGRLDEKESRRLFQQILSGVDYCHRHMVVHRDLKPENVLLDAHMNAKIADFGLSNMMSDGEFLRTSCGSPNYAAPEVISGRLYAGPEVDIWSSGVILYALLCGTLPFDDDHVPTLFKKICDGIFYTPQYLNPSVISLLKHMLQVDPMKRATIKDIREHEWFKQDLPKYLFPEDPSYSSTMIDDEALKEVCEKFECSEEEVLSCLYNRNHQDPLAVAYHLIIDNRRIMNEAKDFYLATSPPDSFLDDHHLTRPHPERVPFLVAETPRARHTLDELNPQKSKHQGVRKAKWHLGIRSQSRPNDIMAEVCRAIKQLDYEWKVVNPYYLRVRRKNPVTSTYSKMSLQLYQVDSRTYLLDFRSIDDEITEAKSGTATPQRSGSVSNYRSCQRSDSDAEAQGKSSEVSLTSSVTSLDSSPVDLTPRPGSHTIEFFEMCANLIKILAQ

[21] = biological target: Mast/stem cell growth factor receptor Kit (Homo sapiens) (UniProt P10721); assay: Inhibition of c-kit (unknown origin) using poly (Glu, Tyr) 4:1 as substrate at 100 uM after 1 hr by ELISA relative to control
[22] = biological target: Receptor tyrosine-protein kinase erbB-4 (Homo sapiens) (UniProt Q15303); assay: Inhibition of ErbB4 (unknown origin) using poly (Glu, Tyr) 4:1 as substrate at 100 uM after 1 hr by ELISA relative to control
Chain of Receptor tyrosine-protein kinase erbB-4 (Homo sapiens) (Q15303 whole entry): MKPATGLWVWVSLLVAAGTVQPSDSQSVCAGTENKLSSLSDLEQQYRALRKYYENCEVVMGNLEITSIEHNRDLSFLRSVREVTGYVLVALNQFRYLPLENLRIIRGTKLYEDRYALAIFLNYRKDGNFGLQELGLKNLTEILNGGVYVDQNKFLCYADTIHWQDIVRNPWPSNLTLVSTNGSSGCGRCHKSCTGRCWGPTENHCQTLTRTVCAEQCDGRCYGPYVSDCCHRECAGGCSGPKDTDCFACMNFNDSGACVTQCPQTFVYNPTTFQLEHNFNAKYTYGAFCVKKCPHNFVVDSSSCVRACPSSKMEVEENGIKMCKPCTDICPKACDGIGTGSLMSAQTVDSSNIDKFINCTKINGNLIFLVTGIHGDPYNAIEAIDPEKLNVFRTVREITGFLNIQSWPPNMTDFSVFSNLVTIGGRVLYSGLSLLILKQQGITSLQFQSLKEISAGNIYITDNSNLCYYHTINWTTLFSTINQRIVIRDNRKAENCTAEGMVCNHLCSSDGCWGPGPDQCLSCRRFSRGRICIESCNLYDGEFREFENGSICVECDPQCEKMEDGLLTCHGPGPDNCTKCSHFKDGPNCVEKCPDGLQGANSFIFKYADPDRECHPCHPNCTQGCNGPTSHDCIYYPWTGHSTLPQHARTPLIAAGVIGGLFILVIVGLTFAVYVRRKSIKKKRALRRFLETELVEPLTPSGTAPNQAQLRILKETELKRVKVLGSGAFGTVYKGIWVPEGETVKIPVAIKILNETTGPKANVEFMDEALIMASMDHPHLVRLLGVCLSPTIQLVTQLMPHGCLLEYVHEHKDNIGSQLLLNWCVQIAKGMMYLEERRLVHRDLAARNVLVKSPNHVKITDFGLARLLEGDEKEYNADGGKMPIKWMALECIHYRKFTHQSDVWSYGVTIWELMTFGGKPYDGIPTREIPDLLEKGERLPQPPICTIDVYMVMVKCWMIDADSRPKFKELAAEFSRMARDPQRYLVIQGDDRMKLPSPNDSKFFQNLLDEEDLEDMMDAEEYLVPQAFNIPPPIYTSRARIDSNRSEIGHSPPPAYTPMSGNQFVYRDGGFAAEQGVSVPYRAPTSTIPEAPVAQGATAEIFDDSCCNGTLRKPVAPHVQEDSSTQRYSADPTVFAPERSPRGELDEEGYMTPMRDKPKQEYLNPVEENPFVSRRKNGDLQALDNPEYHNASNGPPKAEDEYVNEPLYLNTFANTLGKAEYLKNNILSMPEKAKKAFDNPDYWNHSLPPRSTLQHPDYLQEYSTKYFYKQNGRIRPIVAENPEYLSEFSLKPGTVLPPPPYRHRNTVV

A2780 [23] = assay: Induction of apoptosis in human A2780 cells after 24 hrs by annexin V/propidium iodide staining based flow cytometry; format: functional, cell-based
A2780 [24] = assay: Antitumor activity against human A2780 cells xenografted in BALB/c nude mouse assessed as tumor growth inhibition at 30 mg/kg, ip administered once every 2 days for 14 consecutive days relative to control; format: functional; details: read-out: TGI
[25] = biological target: Ephrin type-A receptor 2 (Homo sapiens) (UniProt P29317); assay: Inhibition of EPH-A2 (unknown origin) using poly (Glu, Tyr) 4:1 as substrate at 100 uM after 1 hr by ELISA relative to control
Chain of Ephrin type-A receptor 2 (Homo sapiens) (P29317 whole entry): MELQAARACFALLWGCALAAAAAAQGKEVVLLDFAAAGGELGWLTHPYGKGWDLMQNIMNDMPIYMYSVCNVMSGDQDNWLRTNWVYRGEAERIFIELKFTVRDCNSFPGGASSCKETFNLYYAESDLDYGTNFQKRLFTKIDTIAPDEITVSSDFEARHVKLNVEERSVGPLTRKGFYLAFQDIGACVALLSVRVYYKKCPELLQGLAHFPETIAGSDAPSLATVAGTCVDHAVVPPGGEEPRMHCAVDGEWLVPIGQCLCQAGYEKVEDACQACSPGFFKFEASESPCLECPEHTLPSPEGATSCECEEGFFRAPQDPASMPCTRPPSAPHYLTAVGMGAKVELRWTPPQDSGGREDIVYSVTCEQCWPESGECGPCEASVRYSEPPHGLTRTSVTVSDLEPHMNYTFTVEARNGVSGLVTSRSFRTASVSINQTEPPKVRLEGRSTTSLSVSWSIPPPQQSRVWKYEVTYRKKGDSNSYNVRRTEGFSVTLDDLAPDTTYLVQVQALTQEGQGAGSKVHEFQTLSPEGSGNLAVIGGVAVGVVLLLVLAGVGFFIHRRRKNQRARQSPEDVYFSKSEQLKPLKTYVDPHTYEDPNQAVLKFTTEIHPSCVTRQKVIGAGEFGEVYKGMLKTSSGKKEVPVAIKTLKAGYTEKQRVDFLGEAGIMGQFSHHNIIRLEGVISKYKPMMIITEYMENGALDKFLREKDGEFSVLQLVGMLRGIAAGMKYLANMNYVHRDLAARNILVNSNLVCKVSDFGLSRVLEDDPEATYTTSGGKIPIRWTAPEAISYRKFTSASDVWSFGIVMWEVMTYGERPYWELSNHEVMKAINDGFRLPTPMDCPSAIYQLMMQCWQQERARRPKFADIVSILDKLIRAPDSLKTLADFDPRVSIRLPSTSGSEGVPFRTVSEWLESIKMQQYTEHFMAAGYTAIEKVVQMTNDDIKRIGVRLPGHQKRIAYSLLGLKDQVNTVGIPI

[26] = biological target: Serine/threonine-protein kinase Chk1 (Homo sapiens) (UniProt O14757); assay: Inhibition of recombinant human CHK1 using CREBtide as substrate at 100 uM after 30 mins in presence of ATP relative to control
Chain of Serine/threonine-protein kinase Chk1 (Homo sapiens) (O14757 whole entry): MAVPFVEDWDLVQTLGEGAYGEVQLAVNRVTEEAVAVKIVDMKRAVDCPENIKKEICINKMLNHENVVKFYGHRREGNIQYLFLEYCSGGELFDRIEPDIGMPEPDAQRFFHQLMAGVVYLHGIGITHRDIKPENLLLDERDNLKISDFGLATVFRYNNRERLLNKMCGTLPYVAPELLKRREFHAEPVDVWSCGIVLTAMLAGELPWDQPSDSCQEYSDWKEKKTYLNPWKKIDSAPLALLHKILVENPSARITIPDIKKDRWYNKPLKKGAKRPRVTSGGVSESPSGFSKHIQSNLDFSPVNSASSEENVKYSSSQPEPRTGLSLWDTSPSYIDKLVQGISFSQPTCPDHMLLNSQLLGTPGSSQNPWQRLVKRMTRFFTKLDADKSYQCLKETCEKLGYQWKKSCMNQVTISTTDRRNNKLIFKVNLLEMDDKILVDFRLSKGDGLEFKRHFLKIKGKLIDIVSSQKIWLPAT

[27] = biological target: ALK tyrosine kinase receptor (Homo sapiens) (UniProt Q9UM73); assay: Inhibition of ALK (unknown origin) using poly (Glu, Tyr) 4:1 as substrate at 100 uM after 1 hr by ELISA relative to control
A2780 [28] = assay: Cell cycle arrest in human A2780 cells assessed as accumulation at G0/G1 phase at 5 to 15 uM after 48 hrs by propidium iodide staining based flow cytometry ( Rvb = 60%); format: functional

Chain of Mitogen-activated protein kinase 12 (Homo sapiens) (P53778 whole entry): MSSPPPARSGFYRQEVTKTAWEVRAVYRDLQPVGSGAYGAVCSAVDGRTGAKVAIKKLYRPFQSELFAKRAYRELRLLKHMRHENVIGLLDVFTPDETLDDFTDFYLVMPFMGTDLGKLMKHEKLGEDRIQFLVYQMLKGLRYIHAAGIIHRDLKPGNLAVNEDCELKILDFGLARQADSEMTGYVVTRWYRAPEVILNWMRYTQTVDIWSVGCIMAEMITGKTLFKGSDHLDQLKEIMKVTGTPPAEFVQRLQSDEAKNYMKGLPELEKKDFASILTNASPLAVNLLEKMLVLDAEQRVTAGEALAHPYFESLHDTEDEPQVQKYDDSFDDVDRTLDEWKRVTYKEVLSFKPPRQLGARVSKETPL

SMILES: CCCCCCCCCCCCCCC(=O)NC1CCN(C(=O)C2Sc3ccccc3N(CC)C2=O)CC1 (stereo unspecified)
- Activity (A2780 [1]): Dose-dependent effect
- inhibition [2]: 19%
- inhibition [3]: 0%
- inhibition [4]: 0%
- inhibition [5]: 33.8%
- inhibition in vivo at 50 mg/kg (A2780 [6]): 41.3%
- inhibition (Homo sapiens): 0%
- inhibition [7]: 9.3%
- inhibition [8]: 39%
- inhibition [9]: 3.2%
- inhibition [10]: 19.6%
- inhibition [11]: 94.3%
- inhibition [12]: -7%
- inhibition [13]: 0%
- IC50 [14]: 22.4 µM
- Activity [15]: Non-Toxic
- inhibition [16]: -4.8%
- IC50 (cells): 8.3 µM
- Activity (A2780 [17]): 83.3%
- inhibition [18]: 7%
- Activity (Mus musculus): Non-Toxic
- Activity (A2780 [19]): Dose-dependent effect
- inhibition [20]: 34%
- inhibition [21]: 0%
- inhibition [22]: 34.3%
- Activity (A2780 [23]): Dose-dependent effect
- inhibition in vivo at 30 mg/kg (A2780 [24]): 37.8%
- inhibition [25]: 13%
- inhibition [26]: -8%
- inhibition [27]: -1.7%
- Activity (A2780 [28]): 77.1%
